Patent publication US6825236B2, “Colchicine derivatives” (California Pacific Medical Center, priority 2003, dated 2004)

System: HCT116
Experiment: Cell colony formation assay
Assay type: cell-based
Conditions: 72 hours with drug, colonies counted after 7 days
Method: This example provides directions for growing cells and testing compounds of the invention for their effect on the growth of the cells. All cells were purchased from DCTDC Tumor Repository, NCI, NIH.
Cell Colony Formation Assay
Four hundred cells (HCT 116, PC-3) or five hundred cells (VM46) were plated in 60 mm Petri dishes containing 2.7 ml of medium (modified McCoy's 5a medium) containing 10% fetal bovine serum and 100 units/ml penicillin and […] streptomycin. The cells were incubated in a CO2 incubator at 37° C. for 5 hours for attachment to the bottom of Petri dishes. Drugs were made fresh in medium at ten times the final concentration, and then 0.3 ml of this stock solution was added to the 2.7 ml of medium in the dish. The cells were then incubated with drugs for 72 hours at 37° C. At the end of the incubation the drug-containing media were decanted, the dishes were rinsed with 4 ml of Hank's Balance Salt Solution (HBSS), 5 ml of fresh medium was added, and the dishes were returned to the incubator for colony formation. The cell colonies were counted using colony counter after incubation for 7 days for HCT116 cells and PC-3 cells and 8 days for VM46 cells, respectively.
Values of ID50 (the drug concentration producing 50% inhibition of colony formation) may be determined for each tested compound. The directions described in this example may be used in other cells, such as DU-145.

| SMILES | Survival (%) of HCT116 (100 nM) [%] | Survival (%) of HCT116 (10 nM) [%] | Survival (%) of HCT116 (1 nM) [%] |
| --- | --- | --- | --- |
| CCC(=C(CC)c1ccc(OCC(=O)NC2CCc3cc(OC)c(OC)c(OC)c3-c3ccc(SC)c(=O)cc32)cc1)c1ccc(OCC(=O)NC2CCc3cc(OC)c(OC)c(OC)c3-c3ccc(SC)c(=O)cc32)cc1 (stereo not shown) [Compound 000828, Dimer of N-Deacetylthiocolchicine] | 93.81 |  |  |
| COc1cc2c(c(OC)c1OC)-c1ccc(SC)c(=O)cc1C(NC(=O)CSc1cc(C)c(Cl)cc1Cl)CC2 (stereo not shown) [Compound 000831] | 89.15 |  |  |
| COc1cc2c(c(OC)c1OC)-c1ccc(SC)c(=O)cc1C(NC(=O)CCc1cccnc1)CC2 (stereo not shown) [Compound 000901, N-Deacetyl-N-(3-pyridinepropionyl)thiocolchicine] | 0 | 61.60 |  |
| COc1cc2c(c(OC)c1OC)-c1ccc(SC)c(=O)cc1C(NC(=O)Cn1cc(C)c(=O)[nH]c1=O)CC2 (stereo not shown) [Compound 000905, N-Deacetyl-N-(thymine-1-acetyl)thiocolchicine] | 96.66 |  |  |
| COc1cc2c(c(OC)c1OC)-c1ccc(SC)c(=O)cc1C(NC(=O)c1ccc3c(c1)C(=O)c1ccccc1C3=O)CC2 (stereo not shown) [Compound 000908, N-Deacetyl-N-(anthraquinone-2-carbonyl)thiocolchicine] | 0 | 100 |  |
| COc1cc2c(c(OC)c1OC)-c1ccc(SC)c(=O)cc1C(NC(=O)COc1c(F)c(F)c(F)c(F)c1F)CC2 (stereo not shown) [Compound 000912, N-Deacetyl-N-(2,3,4,5,6-pentafluorophenoxyacetyl)thiocolchicine] | 0.50 | 100 |  |
| COc1cc2c(c(OC)c1OC)-c1ccc(SC)c(=O)cc1C(NC(=O)C(C)ON=C1c3cc([N+](=O)[O-])cc([N+](=O)[O-])c3-c3c1cc([N+](=O)[O-])cc3[N+](=O)[O-])CC2 (stereo not drawn) [Compound 000913, N-Deacetyl-N-[(+)-2-(2,4,5,7-tetranitro-9-fluorenylideneaminooxy)propionyl]thiocolchicine] | 1.00 | 90.91 |  |
| COc1cc2c(c(OC)c1OC)-c1ccc(SC)c(=O)cc1C(NC(=O)C1CCCN1C(=O)OC(C)(C)C)CC2 (stereo not shown) [Compound 000915, N-Deacetyl-N-(1-t-butoxycarbonyl-2-pyrrolidinecarbonyl)thiocolchicine] | 70.12 |  |  |
| COc1cc2c(c(OC)c1OC)-c1ccc(SC)c(=O)cc1C(NC(=O)Cn1cnnn1)CC2 (stereo not shown) [Compound 000918, N-Deacetyl-N-(1H-tetrazole-1-acetyl)thiocolchicine] | 13.61 |  |  |
| COc1cc2c(c(OC)c1OC)-c1ccc(SC)c(=O)cc1[C@@H](NC(=O)c1cn(C)c3nc(C)ccc3c1=O)CC2 [Compound 000920, N-Deacetyl-N-(1,7-dimethylnaphthyridin-4-one-3-carboxy)thiocolchicine] | 95.68 |  |  |
| COc1cc2c(c(OC)c1OC)-c1ccc(SC)c(=O)cc1C(NC(=O)CSc1ccc(Cl)cc1)CC2 (stereo not shown) [Compound 000921, N-Deacetyl-N-[(4-chlorophenylthio)acetyl]thiocoichicine] | 0 | 96.18 |  |
| COc1cc2c(c(OC)c1OC)-c1ccc(SC)c(=O)cc1C(NC(=O)CSc1ccncc1)CC2 (stereo not shown) [Compound 000922, N-Deacetyl-N-(4-pyridylthioacetyl)thiocolchicine] | 0 | 0 | 100 |
| COc1cc2c(c(OC)c1OC)-c1ccc(SC)c(=O)cc1C(NC(=O)CCN1C(=O)c3ccccc3C1=O)CC2 (stereo not shown) [Compound 000925, N-Deacetyl-N-(3-phthalimidopropionyl)thiocolchicine] | 0 | 98.67 |  |
| COc1cc2c(c(OC)c1OC)-c1ccc(SC)c(=O)cc1C(NC(=O)CCC(=O)c1ccc(Br)cc1)CC2 (stereo not shown) [Compound 000926, N-Deacetyl-N-(3-[4-bromobenzoyl]propionyl)thiocolchicine] | 0 | 100 |  |
| CCC(=C(CC)c1ccc(OCC(=O)NC2CCc3cc(OC)c(OC)c(OC)c3-c3ccc(SC)c(=O)cc32)cc1)c1ccc(OCC(=O)NC2CCc3cc(OC)c(OC)c(OC)c3-c3ccc(SC)c(=O)cc32)cc1 (stereo not shown) [Compound 000927, Dimer of N-Deacetylthiocolchicine] | 0 | 100 |  |
| COc1cc2c(c(OC)c1OC)-c1ccc(SC)c(=O)cc1C(NC(=O)N1c3ccccc3Sc3ccccc31)CC2 (stereo not shown) [Compound 000928, N-Deacetyl-N-(phenothiazin-10-ylcarbonyl)thiocolchicine] | 100 |  |  |
| COc1cccc(OCC(=O)NC2CCc3cc(OC)c(OC)c(OC)c3-c3ccc(SC)c(=O)cc32)c1 (stereo not shown) [Compound 001024, N-Deacetyl-N-(3-methoxyphenoxyacetyl)thiocolchicine] | 0 | 98.0 |  |
| COc1cc2c(c(OC)c1OC)-c1ccc(SC)c(=O)cc1C(NC(=O)COc1ccc(C#N)c(F)c1)CC2 (stereo not shown) [Compound 001106, N-Deacetyl-N-(3-fluoro-4-cyanophenoxyacetyl)thiocoichicine] | 0 | 98.51 |  |
| COc1cc2c(c(OC)c1OC)-c1ccc(SC)c(=O)cc1[C@@H](NC(=O)COc1ccc([N+](=O)[O-])c(C(F)(F)F)c1)CC2 [Compound 001107, N-Deacetyl-N-(3-trifluoromethyl-4-nitropbenoxyacetyl)thiocolchicine] | 100 |  |  |
| COc1cc2c(c(OC)c1OC)-c1ccc(SC)c(=O)cc1C(NC(=O)c1ccc(N3C(=O)c4ccccc4C3=O)cc1)CC2 (stereo not shown) [Compound 001114, N-Deacetyl-N-(4-phthalimidobenzoyl)thiocolchicine] | 95.05 |  |  |
| COc1cc2c(c(OC)c1OC)-c1ccc(SC)c(=O)cc1[C@@H](NC(=O)COc1ccc([N+](=O)[O-])cc1)CC2 [Compound 001127, N-Deacetyl-N-(4-nitrophenoxyacetyl)thiocolchicine] | 0 | 75.37 |  |
| COc1cc2c(c(OC)c1OC)-c1ccc(SC)c(=O)cc1C(NC(=O)COc1ccnc3ccccc13)CC2 (stereo not shown) [Compound 001201, N-Deacetyl-N-(quinoline-4-oxyacetyl)thiocolchicine] | 95.07 |  |  |
| COc1cc2c(c(OC)c1OC)-c1ccc(SC)c(=O)cc1[C@@H](NC(=O)COc1cc(C(F)(F)F)cc(C(F)(F)F)c1)CC2 [Compound 001207, N-Deacetyl-N-(3,5-di-trifluoromethylphenoxyacetyl)thiocolchicine] | 3.10 |  |  |
| COc1cc2c(c(OC)c1OC)-c1ccc(SC)c(=O)cc1C(NC(=O)COc1ccc(OC(F)(F)F)cc1)CC2 (stereo not shown) [Compound 001213, N-Deacetyl-N-(4-trifluoromethoxyphenoxyacetyl)thiocolchicine] | 62.56 |  |  |
| COc1cccc(N2CCN(CCC(=O)NC3CCc4cc(OC)c(OC)c(OC)c4-c4ccc(SC)c(=O)cc43)CC2)c1 (stereo not shown) [Compound 001225, N-Deacetyl-N-(4-[3-methoxyphenyl]-piperazinylpropionyl)thiocolchicine] | 0 | 80.5 |  |
| COc1cc2c(c(OC)c1OC)-c1ccc(SC)c(=O)cc1C(NC(=O)CCN1CCN(c3cccc(C(F)(F)F)c3)CC1)CC2 (stereo not shown) [Compound 001227, N-Deacetyl-N-(3-(4-[3-trifluoromethylphenyl]piperazinyl)propionyl)thiocolchicine] | 0 | 100 |  |
| COc1cc2c(c(OC)c1OC)-c1ccc(SC)c(=O)cc1C(NC(=O)COc1c(I)cc(C#N)cc1I)CC2 (stereo not shown) [Compound 001229, N-Deacetyl-N-(2,6-diiodo-4-cyanophenoxyacetyl)thiocolchicine] | 0 | 100 |  |
| COc1cc2c(c(OC)c1OC)-c1ccc(SC)c(=O)cc1[C@@H](NC(C)=O)CC2 [Thiocolchicine, thiocolchicine, reference compound] | 0 | 0 | 100 |
